Tested on: Standard Humanplasma
Experiment: partial thromboplastin time (PTT) test
Format: biochemical, Human
Conditions: blank without peptide 38.8
Protocol: 10 mg des Peptids wurden in 1 ml Puffer (20 mM Tris, 150 mM NaCl pH 7.5) gelöst. Das Peptid wurde in der partiellen Thromboplastinzeit (PTT) gegenüber einem Peptid mit derselben Sequenz getestet, das anstelle von Phe(SO₃ H) jedoch Tyr enthielt.
100 Mikroliter Standard Humanplasma 100 Mikroliter Puffer (s.o.) 100 Mikroliter Kaolin/Pathromtin Reagenz (BEHRINGWERKE AG) 2 Minuten bei 37°C 100 Mikroliter CaCl₂-Lösung

[1] = Verdünnung 1:4 of peptide solution 10 mg in 1 ml buffer (20 mM Tris, 150 mM NaCl pH 7.5)
[2] = Verdünnung 1:8 of peptide solution 10 mg in 1 ml buffer
[3] = Verdünnung 1:16 of peptide solution 10 mg in 1 ml buffer
[4] = Verdünnung 1:32 of peptide solution 10 mg in 1 ml buffer
[5] = Verdünnung 1:64 of peptide solution 10 mg in 1 ml buffer
[6] = Verdünnung 1:128 of peptide solution 10 mg in 1 ml buffer
[7] = Verdünnung 1:256 of peptide solution 10 mg in 1 ml buffer
[8] = Verdünnung 1:512 of peptide solution 10 mg in 1 ml buffer
[9] = Verdünnung 1:1024 of peptide solution 10 mg in 1 ml buffer

Substance | Gerinnungszeiten in Sekunden [1] [Sekunden] | Gerinnungszeiten in Sekunden [2] [Sekunden] | Gerinnungszeiten in Sekunden [3] [Sekunden] | Gerinnungszeiten in Sekunden [4] [Sekunden] | Gerinnungszeiten in Sekunden [5] [Sekunden] | Gerinnungszeiten in Sekunden [6] [Sekunden] | Gerinnungszeiten in Sekunden [7] [Sekunden] | Gerinnungszeiten in Sekunden [8] [Sekunden] | Gerinnungszeiten in Sekunden [9] [Sekunden]
Asn-Gly-Asp-Phe-Glu-Glu-Ile-Pro-Glu-Glu-Tyr-Leu-OH (NGDFEEIPEEYL; printed: Asn-Gly-Asp-Phe-Glu-Glu-Ile-Pro-Glu-Glu-Tyr-Leu-) [Peptid mit Tyr] | 105.2 | 80.5 | 71.0 | 65.0 | 57.7 | 52.8 | 47.3 | 44.7 | 41.7
Asn-Gly-Asp-Phe-Glu-Glu-Ile-Pro-Glu-Glu-Phe(SO₃H)-Leu-OH [Peptid lt. Beispiel] | 147.2 | 111.8 | 89.2 | 81.5 | 72.8 | 63.0 | 56.3 | 52.2 | 46.8

From patent publication EP0443598A2, “Peptides inhibiting the blood coagulation, their process of preparation and their use” (BEHRINGWERKE Aktiengesellschaft, priority 1990, dated 1991)
